Ki data for 18 compounds are collected here from patent US20250312499A1, “KISSPEPTIN RECEPTOR (KISS1R) TARGETED THERAPEUTICS AND USES THEREOF” (priority 2024, published 2025).

The structures appear in SMILES notation. Square brackets hold non-standard residues; d marks the D form. Peptide text beside a SMILES is read from it. * marks the point of attachment. DOTA = O=C(O)CN1CCN(CC(=O)O)CCN(CC(=O)*)CCN(CC(=O)O)CC1; Gly(N-(3-F-4-Me-benzyl)) = Cc1ccc(CNCC(=O)*)cc1F; Butanoyl(4-(4-MePh)) = Cc1ccc(CCCC(=O)*)cc1; Api(1-amidino) = N=C(N)N1CCC(N)(C(=O)O)CC1; Api = NC1(C(=O)O)CCNCC1; Ahx = NCCCCCC(=O)O; azaGly = NNC(=O)O; βAla = NCCC(=O)O; Sar = CNCC(=O)O

As a reminder, the Ki is a dissociation constant, usually derived from enzyme kinetics or from competition with a known ligand.

This test has as its target human kisspeptin receptor (Homo sapiens (Human), UniProt Q969F8). Description: Human KISS1R binding assay (membrane competition binding). Conditions: 90 min at room temperature; competition with 0.2 nM [125I]-metastin (45-54); Flp-In T-Rex 293 kisspeptin membranes; metal complexes nonradioactive Ga, In, Lu; read-out: hKiSSR Binding Ki (90 min). How it is done: Crude membrane fractions are prepared from Flp-In T-Rex 293 (Thermo Fisher) cell line expressing the human kisspeptin receptor. The cells are grown to 85-100% confluence on standard tissue culture dishes in Dulbecco's Modified Eagles Medium (DMEM) (Corning) supplemented with 10% FBS (Gemini), 1% penicillin-streptomycin-glutamine (Gibco), 500 μg/mL hygromycin, and 15 μg/mL blastacidin. 48 hrs prior to preparing membranes 10 μg/ml of tetracycline is added to the culture media to induce receptor expression. To prepare membranes, cells are scraped and collected in 1× Dulbecco's phosphate buffered saline (Corning) and then pelleted at 1000 RPMs. The cell pellet is reconstituted in membrane preparation buffer (20 mM HEPES, 6 mM MgCl2 and 1 mM EGTA, protease inhibitor tablets (Pierce), pH 7.4) and placed in a cell disruption vessel (Parr Instrument company) at 1000 PSI for 30 min on ice. The pressurized contents are then released and spun down at 1000 RPMs and the supernatant is collected and further centrifuged at 15,000 RPMs to pellet the membranes. The membrane pellet is resuspended in membrane preparation buffer, snap frozen and stored at −80° C. for later use.
The human kisspeptin membrane binding assay utilizes the following components: radiolabel [^125I]-metastin (45-54) (human) (Perkinhmer), crude Flp-In T-Rex 293 kisspeptin membranes, and competing small molecule and peptide ligands. The assay is initiated by combining in assay buffer (50 mM TrisHCl, 5 mM MgCl2, 2 mM EGTA, 10 mM CaCl2, 0.1% BSA, pH 7.4) a dose response of competing ligand (final concentrations are typically 0-10,000 nM), 5-10 μg of Flp-In T-Rex 293 kisspeptin membranes, and 0.2 n M [^125I]-metastin (45-54) in a 96-well assay plate and allowed to incubate 90 minutes at room temperature. Assay contents are then filtered through unifilter CF/C: microplates (PerkinElmer) pre-soaked with 0.5% BSA and washed with 9×400 μL of cold wash buffer (10 mM HEPES, 500 mM NaCl, 0.1% Tween-20, pH7.4). Assay plates are read using a Microbeta^2 (PerkinElmer) and Ki values for compounds are determined using a GraphPad Prism 9.3 non-linear regression analysis.

Sequence of human kisspeptin receptor (Q969F8 whole entry): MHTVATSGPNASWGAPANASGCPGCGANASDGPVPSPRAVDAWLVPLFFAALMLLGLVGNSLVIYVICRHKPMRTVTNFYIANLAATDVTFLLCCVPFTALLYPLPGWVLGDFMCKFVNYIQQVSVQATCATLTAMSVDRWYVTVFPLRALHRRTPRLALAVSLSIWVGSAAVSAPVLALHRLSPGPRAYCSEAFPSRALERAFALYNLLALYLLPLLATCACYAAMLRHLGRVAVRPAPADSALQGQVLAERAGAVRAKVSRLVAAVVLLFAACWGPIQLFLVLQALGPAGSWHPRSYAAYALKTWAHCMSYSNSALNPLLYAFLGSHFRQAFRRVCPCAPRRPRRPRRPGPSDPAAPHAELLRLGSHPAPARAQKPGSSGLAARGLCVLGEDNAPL

With `Cc1ccc(CNCC(=O)N2CCC(NC(=O)[C@H](CC(C)C)NC(=O)NNC(=O)[C@H](Cc3ccccc3)NC(=O)[C@@H](NC(=O)[C@H](CC(N)=O)NC(=O)[C@@H](Cc3c[nH]c4ccccc34)NC(=O)[C@@H](Cc3ccc(O)cc3)NC(=O)CCCCCNC(=O)CN3CCN(CC(=O)O)CCN(CC(=O)O)CCN(CC(=O)O)CC3)[C@@H](C)O)(C(=O)N[C@@H](Cc3c[nH]c4ccccc34)C(N)=O)CC2)cc1F` [Compound 1] ({DOTA-Ahx}-[dY][dW]NTF[azaGly]L[Api](Gly(N-(3-F-4-Me-benzyl)))W-NH2), the Ki is < 0.01 µM. In the case of `Cc1ccc(CNCC(=O)N2CCC(NC(=O)[C@H](CC(C)C)NC(=O)NNC(=O)[C@H](Cc3ccccc3)NC(=O)CCCCCNC(=O)CN3CCN(CC(=O)O)CCN(CC(=O)O)CCN(CC(=O)O)CC3)(C(=O)N[C@@H](Cc3c[nH]c4ccccc34)C(N)=O)CC2)cc1F` [Compound 2] ({DOTA-Ahx}-F[azaGly]L[Api](Gly(N-(3-F-4-Me-benzyl)))W-NH2), the Ki was < 0.01 µM. As for `CC(C)C[C@H](NC(=O)CNC(=O)[C@H](Cc1ccccc1)NC(=O)CCCCCNC(=O)CN1CCN(CC(=O)O)CCN(CC(=O)O)CCN(CC(=O)O)CC1)C(=O)NC1(C(=O)N[C@@H](Cc2c[nH]c3ccccc23)C(N)=O)CCN(C(=N)N)CC1` [Compound 3] ({DOTA-Ahx}-FGL[Api(1-amidino)]W-NH2), the Ki is > 0.1 µM. As to `CC(C)C[C@H](NC(=O)NNC(=O)[C@H](Cc1ccccc1)NC(=O)CCCCCNC(=O)CN1CCN(CC(=O)O)CCN(CC(=O)O)CCN(CC(=O)O)CC1)C(=O)NC1(C(=O)N[C@@H](Cc2c[nH]c3ccccc23)C(N)=O)CCN(C(=N)N)CC1` [Compound 5] ({DOTA-Ahx}-F[azaGly]L[Api(1-amidino)]W-NH2), the Ki fell in the range of 0.01 to 0.1 µM. In the case of `CC(C)C[C@H](NC(=O)NNC(=O)[C@H](Cc1ccccc1)NC(=O)[C@@H](NC(=O)[C@H](CC(N)=O)NC(=O)[C@@H](Cc1c[nH]c2ccccc12)NC(=O)[C@@H](Cc1ccc(O)cc1)NC(=O)CCCCCNC(=O)CN1CCN(CC(=O)O)CCN(CC(=O)O)CCN(CC(=O)O)CC1)[C@@H](C)O)C(=O)NC1(C(=O)N[C@@H](Cc2c[nH]c3ccccc23)C(N)=O)CCN(C(=N)N)CC1` [Compound 6] ({DOTA-Ahx}-[dY][dW]NTF[azaGly]L[Api(1-amidino)]W-NH2), the Ki is < 0.01 µM. As for `Cc1ccc(CCCC(=O)N2CCC(NC(=O)[C@H](CC(C)C)NC(=O)NNC(=O)[C@H](Cc3ccccc3)NC(=O)CCCCCNC(=O)CN3CCN(CC(=O)O)CCN(CC(=O)O)CCN(CC(=O)O)CC3)(C(=O)N[C@@H](Cc3c[nH]c4ccccc34)C(N)=O)CC2)cc1` [Compound 7] ({DOTA-Ahx}-F[azaGly]L[Api](Butanoyl(4-(4-MePh)))W-NH2), the Ki fell in the range of 0.01 to 0.1 µM. With `Cc1ccc(CNCC(=O)N2CCC(NC(=O)[C@H](CC(C)C)SCCNC(=O)[C@H](Cc3ccccc3)NC(=O)CCCCCNC(=O)CN3CCN(CC(=O)O)CCN(CC(=O)O)CCN(CC(=O)O)CC3)(C(=O)N[C@@H](Cc3c[nH]c4ccccc34)C(N)=O)CC2)cc1F` [Compound 8] the figure was < 0.01 µM; with `Cc1ccc(CNCC(=O)N2CCC(NC(=O)[C@H](CC(C)C)n3cc([C@H](Cc4ccccc4)NC(=O)CCCCCNC(=O)CN4CCN(CC(=O)O)CCN(CC(=O)O)CCN(CC(=O)O)CC4)nn3)(C(=O)N[C@@H](Cc3c[nH]c4ccccc34)C(N)=O)CC2)cc1F` [Compound 9], < 0.01 µM; with `Cc1ccc(CNCC(=O)N2CCC(NC(=O)[C@H](CC(C)C)NC(=O)CNC(=O)[C@H](Cc3ccccc3)NC(=O)CCCCCNC(=O)CN3CCN(CC(=O)O)CCN(CC(=O)O)CCN(CC(=O)O)CC3)(C(=O)N[C@@H](Cc3c[nH]c4ccccc34)C(N)=O)CC2)cc1F` [Compound 10] ({DOTA-Ahx}-FGL[Api](Gly(N-(3-F-4-Me-benzyl)))W-NH2), < 0.01 µM.

Regarding `Cc1ccc(CNCC(=O)N2CCC(NC(=O)[C@H](CC(C)C)NC(=O)CNC(=O)[C@H](Cc3ccccc3)NC(=O)CCCCCNC(=O)CN3CCN(CC(=O)O)CCN(CC(=O)O)CCN(CC(=O)O)CC3)(C(=O)N[C@@H](Cc3ccc(O)cc3)C(N)=O)CC2)cc1F` [Compound 11] ({DOTA-Ahx}-FGL[Api](Gly(N-(3-F-4-Me-benzyl)))Y-NH2), the Ki was < 0.01 µM. With `Cc1ccc(CNCC(=O)N2CCC(NC(=O)[C@H](CC(C)C)NC(=O)CN(C)C(=O)[C@H](Cc3ccccc3)NC(=O)CCCCCNC(=O)CN3CCN(CC(=O)O)CCN(CC(=O)O)CCN(CC(=O)O)CC3)(C(=O)N[C@@H](Cc3c[nH]c4ccccc34)C(N)=O)CC2)cc1F` [Compound 12] ({DOTA-Ahx}-F[Sar]L[Api](Gly(N-(3-F-4-Me-benzyl)))W-NH2) the figure was 0.01 to 0.1 µM; with `Cc1ccc(CNCC(=O)N2CCC(NC(=O)[C@H](CC(C)C)NC(=O)NNC(=O)[C@H](Cc3ccccc3)NC(=O)[C@@H](C)NC(=O)[C@@H](C)NC(=O)[C@@H](C)NC(=O)[C@@H](C)NC(=O)[C@@H](C)NC(=O)CCCCCNC(=O)CN3CCN(CC(=O)O)CCN(CC(=O)O)CCN(CC(=O)O)CC3)(C(=O)N[C@@H](Cc3c[nH]c4ccccc34)C(N)=O)CC2)cc1F` [Compound 13] ({DOTA-Ahx}-[dA][dA][dA][dA][dA]F[azaGly]L[Api](Gly(N-(3-F-4-Me-benzyl)))W-NH2), 0.01 to 0.1 µM.

`Cc1ccc(CNCC(=O)N2CCC(NC(=O)[C@H](CC(C)C)NC(=O)NNC(=O)[C@H](Cc3ccccc3)NC(=O)[C@@H](CC(N)=O)NC(=O)[C@@H](CC(N)=O)NC(=O)[C@@H](CC(N)=O)NC(=O)[C@@H](CC(N)=O)NC(=O)[C@@H](CC(N)=O)NC(=O)CCNC(=O)CN3CCN(CC(=O)O)CCN(CC(=O)O)CCN(CC(=O)O)CC3)(C(=O)N[C@@H](Cc3c[nH]c4ccccc34)C(N)=O)CC2)cc1F` [Compound 14] ({DOTA-βAla}-[dN][dN][dN][dN][dN]F[azaGly]L[Api](Gly(N-(3-F-4-Me-benzyl)))W-NH2): the Ki was in the range of 0.01 to 0.1 µM. For `Cc1ccc(CNCC(=O)N2CCC(NC(=O)[C@H](CC(C)C)NC(=O)NNC(=O)[C@H](Cc3ccccc3)NC(=O)[C@@H](CC(N)=O)NC(=O)[C@@H](CCC(=O)O)NC(=O)[C@@H](CCC(=O)O)NC(=O)[C@@H](CC(N)=O)NC(=O)[C@@H](CC(N)=O)NC(=O)CCNC(=O)CN3CCN(CC(=O)O)CCN(CC(=O)O)CCN(CC(=O)O)CC3)(C(=O)N[C@@H](Cc3c[nH]c4ccccc34)C(N)=O)CC2)cc1F` [Compound 15] ({DOTA-βAla}-[dN][dN][dE][dE][dN]F[azaGly]L[Api](Gly(N-(3-F-4-Me-benzyl)))W-NH2) the value was > 0.1 µM. For `Cc1ccc(CNCC(=O)N2CCC(NC(=O)[C@H](CC(C)C)NC(=O)NNC(=O)[C@H](Cc3ccccc3)NC(=O)[C@@H](CC(N)=O)NC(=O)[C@@H](CCC(=O)O)NC(=O)[C@@H](CCCCN)NC(=O)[C@@H](CC(N)=O)NC(=O)[C@@H](CC(N)=O)NC(=O)CCNC(=O)CN3CCN(CC(=O)O)CCN(CC(=O)O)CCN(CC(=O)O)CC3)(C(=O)N[C@@H](Cc3c[nH]c4ccccc34)C(N)=O)CC2)cc1F` [Compound 16] ({DOTA-βAla}-[dN][dN][dK][dE][dN]F[azaGly]L[Api](Gly(N-(3-F-4-Me-benzyl)))W-NH2) the value was > 0.1 µM; for `Cc1ccc(CNCC(=O)N2CCC(NC(=O)[C@H](CC(C)C)NC(=O)NNC(=O)[C@H](Cc3ccccc3)NC(=O)CN(C)C(=O)CN(C)C(=O)CN3CCN(CC(=O)O)CCN(CC(=O)O)CCN(CC(=O)O)CC3)(C(=O)N[C@@H](Cc3c[nH]c4ccccc34)C(N)=O)CC2)cc1F` [Compound 17] ({DOTA}-[Sar][Sar]F[azaGly]L[Api](Gly(N-(3-F-4-Me-benzyl)))W-NH2), < 0.01 µM.

Consider `Cc1ccc(CNCC(=O)N2CCC(NC(=O)[C@H](CC(C)C)NC(=O)NNC(=O)[C@H](Cc3ccccc3)NC(=O)[C@@H](CC(N)=O)NC(=O)[C@@H](CC(N)=O)NC(=O)CN3CCN(CC(=O)O)CCN(CC(=O)O)CCN(CC(=O)O)CC3)(C(=O)N[C@@H](Cc3c[nH]c4ccccc34)C(N)=O)CC2)cc1F` [Compound 18] ({DOTA}-[dN][dN]F[azaGly]L[Api](Gly(N-(3-F-4-Me-benzyl)))W-NH2), for which the Ki fell in the range of 0.01 to 0.1 µM. For `Cc1ccc(CNCC(=O)N2CCC(NC(=O)[C@H](CC(C)C)NC(=O)NNC(=O)[C@H](Cc3ccccc3)NC(=O)[C@@H](NC(=O)[C@H](CC(N)=O)NC(=O)[C@@H]3CCCN3C(=O)[C@@H](Cc3ccc(O)cc3)NC(=O)CCCCCNC(=O)CN3CCN(CC(=O)O)CCN(CC(=O)O)CCN(CC(=O)O)CC3)[C@@H](C)O)(C(=O)N[C@@H](Cc3c[nH]c4ccccc34)C(N)=O)CC2)cc1F` [Compound 20] ({DOTA-Ahx}-[dY]PNTF[azaGly]L[Api](Gly(N-(3-F-4-Me-benzyl)))W-NH2) the value was < 0.01 µM.
